Assay results from the supplement of paper PMC11061612.

What was measured:
Experiment in all cases: combination Emax (second highest fraction inhibited in the dose matrix, 72 h); higher = more inhibition; extreme values may be limits of the assay
[1] = tested on: PANC-08-13 (Pancreatic Carcinoma)
Outline: (§1)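 After 24 hours at 37°C and 5% CO2 in 1536-well plates, cells in DMEM/F12 or RPMI plus 10% FBS received two-drug dose matrices for 72 hours. Viability came from CellTiter-Glo 2.0 luminescence and was scaled as inhibition, anchored at 0 by vehicle wells and at 1 by blank wells. Combination Emax is taken as the second-highest inhibition in the matrix, and Bliss excess as the observed combination effect less EA + EB − EA·EB, with EA and EB the single-agent effects.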

[2] = tested on: KCL-22 (Chronic Myelogenous Leukemia)
Outline: as §1

CHP-212 (Neuroblastoma) = tested on: CHP-212 (Neuroblastoma)
Outline: as §1

[3] = tested on: K-562 (Chronic Myelogenous Leukemia)
Outline: as §1

[4] = tested on: NCI-H1792 (Lung Adenocarcinoma)
Outline: as §1

[5] = tested on: KARPAS-45 (T-Lymphoblastic Leukemia)
Outline: as §1

MEL-JUSO (Melanoma) = tested on: MEL-JUSO (Melanoma)
Outline: as §1

[6] = tested on: P12-ICHIKAWA (T-Lymphoblastic Leukemia)
Outline: as §1

[7] = tested on: GR-ST (B-Lymphoblastic Leukemia)
Outline: as §1

ES8 (Ewing's Sarcoma) = tested on: ES8 (Ewing's Sarcoma)
Outline: as §1

[8] = tested on: COLO-678 (Colorectal Carcinoma)
Outline: as §1

[9] = tested on: KM12 (Colorectal Carcinoma)
Outline: as §1

[10] = tested on: SR (Other Blood Carcinomas)
Outline: as §1

[11] = tested on: HDQ-P1 (Breast Carcinoma)
Outline: as §1

[12] = tested on: SW1417 (Colorectal Carcinoma)
Outline: as §1

[13] = tested on: BL-41 (Burkitt's Lymphoma)
Outline: as §1

U251 (Low Grade Glioma) = tested on: U251 (Low Grade Glioma)
Outline: as §1

ES1 (Ewing's Sarcoma) = tested on: ES1 (Ewing's Sarcoma)
Outline: as §1

LN-18 (Glioblastoma) = tested on: LN-18 (Glioblastoma)
Outline: as §1

Structure (SMILES) | combination Emax [1] | combination Emax [2] | combination Emax (CHP-212 (Neuroblastoma)) | combination Emax [3] | combination Emax [4] | combination Emax [5] | combination Emax (MEL-JUSO (Melanoma)) | combination Emax [6] | combination Emax [7] | combination Emax (ES8 (Ewing's Sarcoma)) | combination Emax [8] | combination Emax [9] | combination Emax [10] | combination Emax [11] | combination Emax [12] | combination Emax [13] | combination Emax (U251 (Low Grade Glioma)) | combination Emax (ES1 (Ewing's Sarcoma)) | combination Emax (LN-18 (Glioblastoma))
CC(=O)c1c(C)c2cnc(Nc3ccc(N4CCNCC4)cn3)nc2n(C2CCCC2)c1=O [Palbociclib] + Cc1c2c(nn1C)CSCc1cc(n(C)n1)CSc1cc(c3ccccc3c1)OCCCc1c(C(=O)O)n(C)c3c-2c(Cl)ccc13 [AZD5991] (first compound max 10 µM, 7x7, partner max 1 µM) | 0.221 | 0.673 | 0.882 | 0.132 | 0.571 | 0.99 | 0.305 | 0.83 | 0.719 | 0.65 | 0.351 | 0.752 | 0.993 | 0.263 | 0.229 | 0.998 | 0.297 | 0.917 | 0.477
CC(=O)c1c(C)c2cnc(Nc3ccc(N4CCNCC4)cn3)nc2n(C2CCCC2)c1=O [Palbociclib] + Cn1cnc2c(F)c(Nc3ccc(Br)cc3Cl)c(C(=O)NOCCO)cc21 [Selumetinib] (first compound max 10 µM, 7x7, partner max 10 µM) | 0.221 | 0.569 | 0.979 | 0.237 | 0.651 | 0.964 | 0.425 | 0.77 | 0.726 | 0.823 | 0.525 | 0.768 | 0.873 | 0.289 | 0.512 | 0.433 | 0.297 | 0.616 | 0.359
C[C@@H](c1ccc2nccn2c1)n1nnc2ncc(-c3cnn(C)c3)nc21 [Savolitinib] + CC1(C)CCC(CN2CCN(c3ccc(C(=O)NS(=O)(=O)c4ccc(NCC5CCOCC5)c([N+](=O)[O-])c4)c(Oc4cnc5[nH]ccc5c4)c3)CC2)=C(c2ccc(Cl)cc2)C1 [Venetoclax] (first compound max 1 µM, 7x7, partner max 1 µM) | 0.109 | 0.137 | 0.108 | 0.155 | 0.108 | 0.322 | 0.126 | 0.188 | 0.218 | 0.259 | 0.146 | 0.058 | 0.437 | 0.117 | 0.126 | 0.106 | 0.116 | 0.113 | 0.146
C[C@@H](c1ccc2nccn2c1)n1nnc2ncc(-c3cnn(C)c3)nc21 [Savolitinib] + Cc1c2c(nn1C)CSCc1cc(n(C)n1)CSc1cc(c3ccccc3c1)OCCCc1c(C(=O)O)n(C)c3c-2c(Cl)ccc13 [AZD5991] (first compound max 1 µM, 7x7, partner max 1 µM) | 0.146 | 0.289 | 0.787 | 0.159 | 0.214 | 0.882 | 0.183 | 0.29 | 0.145 | 0.292 | 0.161 | 0.159 | 0.772 | 0.2 | 0.161 | 1 | 0.217 | 0.743 | 0.202
Cn1cnc2c(F)c(Nc3ccc(Br)cc3Cl)c(C(=O)NOCCO)cc21 [Selumetinib] + C=CCn1c(=O)c2cnc(Nc3ccc(N4CCN(C)CC4)cc3)nc2n1-c1cccc(C(C)(C)O)n1 [AZD1775] (first compound max 10 µM, partner max 1 µM) | 0.305 | 0.943 | 0.978 | 0.834 | 0.632 | 0.909 | 0.604 | 1 | 0.801 | 0.491 | 0.52 | 0.884 | 0.978 | 0.673 | 0.704 | 1 | 0.326 | 0.602 | 0.461
Cn1cnc2c(F)c(Nc3ccc(Br)cc3Cl)c(C(=O)NOCCO)cc21 [Selumetinib] + CC(C)n1c(=O)n(C)c2cnc3cc(F)c(-c4ccc(OCCCN5CCCCC5)nc4)cc3c21 [AZD1390] (first compound max 10 µM, 7x7, partner max 0.3 µM) | 0.111 | 0.478 | 0.923 | 0.168 | 0.378 | 0.0319 | 0.349 | 0.305 | 0.225 | 0.263 | 0.502 | 0.657 | 0.129 | 0.248 | 0.437 | 0.209 | 0.141 | 0.0951 | 0.157
Cn1cnc2c(F)c(Nc3ccc(Br)cc3Cl)c(C(=O)NOCCO)cc21 [Selumetinib] + CCN(CCO)CCCOc1ccc2c(Nc3cc(CC(=O)Nc4cccc(F)c4)[nH]n3)ncnc2c1 [AZD2811] (first compound max 10 µM, 7x7, partner max 1 µM) | 0.22 | 0.593 | 0.972 | 0.32 | 0.423 | 0.926 | 0.427 | 1 | 0.316 | 0.996 | 0.51 | 0.676 | 0.942 | 0.393 | 0.559 | 0.629 | 0.268 | 0.532 | 0.34
